Measured values taken from patent US20160095843A1, “PYRAZOLOPYRROLIDINE DERIVATIVES AND THEIR USE IN THE TREATMENT OF DISEASE” (NOVARTIS AG, priority 2013, published 2016).

Columns and labels:
THP-1 cells = experiment: Cell growth inhibition assay (CellTiter-Glo), THP-1; type: cell-based; conditions: Homo sapiens
Method: (§1) Cell Growth Inhibition Assay
(§2) The human leukemia cell lines MV-4-11, THP-1 and K-562 were employed to characterize the effect of BET inhibitors on cellular proliferation and viability. Cells were obtained from the American Type Culture Collection (ATCC) and cultured at 37° C. in a humidified 5% CO2 incubator in the following media: MV-4-11: DMEM high glucose (Animed #1-26F01-I), 10% FCS (Animed #2-01F26-I), 4 mM L-Glutamine (Animed #5-10K50), 1 mM Sodium Pyruvate (Animed # G03625P), 1× Penicillin-Streptomycin (Animed # F12478P); K-562: Iscove's MEM (Animed #1-28F16-I), 10% FCS (Animed #2-01F26-I), 4 mM L-Glutamine (Animed #5-10K50), 1× Penicillin-Streptomycin (Animed # F12478P); THP-1: RPMI-1640 (Animed #1-41F01-I), 10% FCS (Animed #2-01F26-I), 2 mM L-Glutamine (Animed #5-10K50), 10 mM HEPES (Animed #5-31F100), 1 mM Sodium Pyruvate (Animed # G03625P), 1× Penicillin-Streptomycin (Animed # F12478P). The AML lines MV-4-11 and THP-1 are very sensitive to BET inhibitors and show massive cell death upon BET inhibition (Zuber et al., Nature, 478 (2011), 524-8). Compound-mediated suppression of cell proliferation/viability was assessed by quantification of cellular ATP levels using the CellTiter-Glo (CTG) reagent (Promega). Briefly, cells were seeded in 20 μl fresh medium into 384-well plates, followed by addition of 5 μL medium containing compound dilutions at 5-fold their final intended concentration. Dose-response effects were assessed by 3-fold serial dilutions of the test compound, starting at 10 μM. Following incubation of the cells for 4 days at 37° C. and 5% CO2, the effect of inhibitors on cell viability was quantified following addition of 20 μl CTG and luminescence quantification (integration time: 100 ms) as per vendor manual, using a correspondingly equipped Tecan M200 multi-mode platereader (TECAN, Switzerland). For data analysis, the assay background value determined in wells containing medium, but no cells, was subtracted from all data points. To enable differentiation of cytotoxic from cytostatic compounds, the number of viable cells is assessed relative to that observed at the time of compound addition using a separate cell plate (day 0). The effect of a particular test compound concentration on cell proliferation/viability is expressed as percentage of the background- and day 0-corrected luminescence reading obtained for cells treated with vehicle only (DMSO, 0.1% final concentration), which is set as 100%, whereas that luminescence reading for wells containing medium is set as −100%. Compound concentrations leading to half-maximal (1050) and total growth inhibition (TGI) were determined using standard four parameter curve fitting.

MV-4-11 cells = experiment: Cell growth inhibition assay (CellTiter-Glo), MV-4-11; type: cell-based; conditions: Homo sapiens, MV4-11
Method: as §1, §2

K-562 cells = experiment: Cell growth inhibition assay (CellTiter-Glo), K-562; type: cell-based, human; conditions: for GI50: Homo sapiens, K562
Method: as §1, §2

GI50 (THP-1 cells) [nM] | GI50 (MV-4-11 cells) [nM] | GI50 (K-562 cells) [nM] | Structure (SMILES) | IC (TGI) (K-562 cells) [µM]
223 | 100 | 766 | COc1ncccc1-n1nc(C)c2c1C(=O)N(c1cc(Cl)c(=O)n(C)c1)C2c1ccc(Cl)cc1 (centres unmarked) [Example 72, 5-(5-chloro-1-methyl-6-oxo-1,6-dihydropyridin-3-yl)-4-(4-chlorophenyl)-1-(2-methoxypyridin-3-yl)-3-methyl-4,5-dihydropyrrolo[3,4-c]pyrazol-6(1H)-one] | –
> 10000 | 3020 | > 10000 | Cc1cc(N2C(=O)c3nn(C)c(O)c3C2c2ccc(Cl)cc2)cn(C)c1=O (centres unmarked) [Example 73, 4-(4-chlorophenyl)-5-(1,5-dimethyl-6-oxo-1,6-dihydropyridin-3-yl)-3-hydroxy-2-methyl-4,5-dihydropyrrolo[3,4-c]pyrazol-6(2H)-one] | –
140 | 53.2 | 339 | CCOc1c2c(nn1C)C(=O)N(c1cc(C)c(=O)n(C)c1)C2c1ccc(Cl)cc1 (centres unmarked) [Example 76, 4-(4-chlorophenyl)-5-(1,5-dimethyl-6-oxo-1,6-dihydropyridin-3-yl)-3-ethoxy-2-methyl-4,5-dihydropyrrolo-[3,4-c]pyrazol-6(2H)-one] | –
178 | 88.8 | 569 | COc1c2c(nn1C)C(=O)N(c1cc(C)c(=O)n(C)c1)C2c1ccc(Cl)cc1 (centres unmarked) [Example 77, 4-(4-chlorophenyl)-5-(1,5-dimethyl-6-oxo-1,6-dihydropyridin-3-yl)-3-methoxy-2-methyl-4,5-dihydropyrrolo-[3,4-c]pyrazol-6(2H)-one] | –
85.4 | 52 | 392 | CCc1nn(CCO)c2c1C(c1ccc(Cl)cc1)N(c1cc(C)c(=O)n(C)c1)C2=O (centres unmarked) [Example 78, 4-(4-chlorophenyl)-5-(1,5-dimethyl-6-oxo-1,6-dihydropyridin-3-yl)-3-ethyl-1-(2-hydroxyethyl)-4,5-dihydropyrrolo-[3,4-c]pyrazol-6(1H)-one] | –
255 | 348 | 920 | CCc1nn(CCO)c2c1C(c1ccc(Cl)cc1)N(c1cc(C)c3onc(C)c3c1)C2=O (centres unmarked) [Example 79, 4-(4-chlorophenyl)-5-(3,7-dimethylbenzo[d]isoxazol-5-yl)-3-ethyl-1-(2-hydroxyethyl)-4,5-dihydropyrrolo-[3,4-c]pyrazol-6(1H)-one] | –
354 | 356 | 868 | CCc1c2c(nn1CCO)C(=O)N(c1cc(C)c3onc(C)c3c1)C2c1ccc(Cl)cc1 (centres unmarked) [Example 80, 4-(4-chlorophenyl)-5-(3,7-dimethylbenzo[d]isoxazol-5-yl)-3-ethyl-2-(2-hydroxyethyl)-4,5-dihydropyrrolo[3,4-c]pyrazol-6(2H)-one] | –
261 | 95.6 | 883 | Cc1ncccc1-n1nc2c(c1C)C(c1ccc(Cl)cc1)N(c1cc(C)c(=O)n(C)c1)C2=O (centres unmarked) [Example 81, 4-(4-chlorophenyl)-5-(1,5-dimethyl-6-oxo-1,6-dihydropyridin-3-yl)-3-methyl-2-(2-methylpyridin-3-yl)-4,5-dihydropyrrolo-[3,4-c]pyrazol-6(2H)-one] | –
222 | 94.8 | 920 | Cc1ncccc1-n1nc(C)c2c1C(=O)N(c1cc(C)c(=O)n(C)c1)C2c1ccc(Cl)cc1 (centres unmarked) [Example 82, 4-(4-chlorophenyl)-5-(1,5-dimethyl-6-oxo-1,6-dihydropyridin-3-yl)-3-methyl-1-(2-methylpyridin-3-yl)-4,5-dihydropyrrolo[3,4-c]pyrazol-6(1H)-one] | –
164 | 100 | 719 | Cc1nn(-c2cncn2C)c2c1C(c1ccc(Cl)cc1)N(c1cc(C)c(=O)n(C)c1)C2=O (centres unmarked) [Example 83, 4-(4-chlorophenyl)-5-(1,5-dimethyl-6-oxo-1,6-dihydropyridin-3-yl)-3-methyl-1-(1-methyl-1H-imidazol-5-yl)-4,5-dihydropyrrolo[3,4-c]pyrazol-6(1H)-one] | –
86.9 | 58.3 | 384 | CCc1nn(C2CC2)c2c1C(c1ccc(Cl)cc1)N(c1cc(OC)c3nnc(C)n3c1)C2=O (centres unmarked) [Example 84, 4-(4-chlorophenyl)-1-cyclopropyl-3-ethyl-5-(8-methoxy-3-methyl-[1,2,4]triazolo[4,3-a]pyridin-6-yl)-4,5-dihydropyrrolo-[3,4-c]pyrazol-6(1H)-one] | –
63.8 | 34.6 | 229 | CCc1nn(CCOC)c2c1C(c1ccc(Cl)cc1)N(c1cc(C)c(=O)n(C)c1)C2=O (centres unmarked) [Example 86, 4-(4-chlorophenyl)-5-(1,5-dimethyl-6-oxo-1,6-dihydropyridin-3-yl)-3-ethyl-1-(2-methoxyethyl)-4,5-dihydropyrrolo[3,4-c]pyrazol-6(1H)-one] | –

Continued, compound first:

Structure (SMILES) | GI50 (THP-1 cells) [nM] | GI50 (MV-4-11 cells) [nM] | GI50 (K-562 cells) [nM] | IC (TGI) (K-562 cells) [µM]
Cc1nn(C(C)C)c2c1C(c1ccc(Cl)cc1)N(c1cc(C)c(=O)n(C)c1)C2=O (centres unmarked) [Example 63, 4-(4-chlorophenyl)-5-(1,5-dimethyl-6-oxo-1,6-dihydropyridin-3-yl)-1-isopropyl-3-methyl-4,5-dihydropyrrolo[3,4-c]pyrazol-6(1H)-one] | 61.9 | 25.8 | 314 | >10
Cc1cc(N2C(=O)c3nn(C(C)C)c(C)c3C2c2ccc(Cl)cc2)cn(C)c1=O (centres unmarked) [Example 64, 4-(4-chlorophenyl)-5-(1,5-dimethyl-6-oxo-1,6-dihydropyridin-3-yl)-2-isopropyl-3-methyl-4,5-dihydropyrrolo-[3,4-c]pyrazol-6(2H)-one] | 64.8 | 27.6 | 292 | –
Cc1c2c(nn1C(C)C)C(=O)N(c1cc(Cl)c(=O)n(C)c1)C2c1ccc(Cl)cc1 (centres unmarked) [Example 65, 5-(5-chloro-1-methyl-6-oxo-1,6-dihydropyridin-3-yl)-4-(4-chlorophenyl)-2-isopropyl-3-methyl-4,5-dihydropyrrolo-[3,4-c]pyrazol-6(2H)-one] | 121 | 67.5 | 554 | –
Cc1nn(C(C)C)c2c1C(c1ccc(Cl)cc1)N(c1cc(Cl)c(=O)n(C)c1)C2=O (centres unmarked) [Example 66, 5-(5-chloro-1-methyl-6-oxo-1,6-dihydropyridin-3-yl)-4-(4-chlorophenyl)-1-isopropyl-3-methyl-4,5-dihydropyrrolo-[3,4-c]pyrazol-6(1H)-one] | 126 | 67.7 | 908 | –
COc1ncc(-n2nc3c(c2C(C)C)C(c2ccc(Cl)cc2)N(c2cc(C)c4nnc(C)n4c2)C3=O)c(OC)n1 (centres unmarked) [Example 67, 4-(4-chlorophenyl)-2-(2,4-dimethoxypyrimidin-5-yl)-5-(3,8-dimethyl-[1,2,4]triazolo-[4,3-a]pyridin-6-yl)-3-isopropyl-4,5-dihydropyrrolo-[3,4-c]pyrazol-6(2H)-one] | 20.3 | 8.55 | 47.4 | –
CCc1c2c(nn1C1CC1)C(=O)N(c1cc(C)c(=O)n(C)c1)C2c1ccc(Cl)cc1 (centres unmarked) [Example 68, 4-(4-chlorophenyl)-2-cyclopropyl-5-(1,5-dimethyl-6-oxo-1,6-dihydropyridin-3-yl)-3-ethyl-4,5-dihydropyrrolo-[3,4-c]pyrazol-6(2H)-one] | 47.7 | 30.1 | 157 | –
CCc1nn(C2CC2)c2c1C(c1ccc(Cl)cc1)N(c1cc(C)c(=O)n(C)c1)C2=O (centres unmarked) [Example 69, 4-(4-chlorophenyl)-1-cyclopropyl-5-(1,5-dimethyl-6-oxo-1,6-dihydropyridin-3-yl)-3-ethyl-4,5-dihydropyrrolo-[3,4-c]pyrazol-6(1H)-one] | 44.2 | 27.4 | 135 | –
CCc1nn(C2CC2)c2c1C(c1ccc(Cl)cc1)N(c1cc(C)c3nnc(C)n3c1)C2=O (centres unmarked) [Example 70, 4-(4-chlorophenyl)-1-cyclopropyl-5-(3,8-dimethyl-[1,2,4]triazolo[4,3-a]pyridin-6-yl)-3-ethyl-4,5-dihydropyrrolo-[3,4-c]pyrazol-6(1H)-one] | 12.2 | 9.02 | 60.8 | –
COc1ncccc1-n1nc(C)c2c1C(=O)N(c1cc(C)c(=O)n(C)c1)C2c1ccc(Cl)cc1 (centres unmarked) [Example 71, 4-(4-chlorophenyl)-5-(1,5-dimethyl-6-oxo-1,6-dihydropyridin-3-yl)-1-(2-methoxypyridin-3-yl)-3-methyl-4,5-dihydropyrrolo-[3,4-c]pyrazol-6(1H)-one] | 75.6 | 66.6 | 345 | >10
